Key:
Experiment in all cases: area under the viability dose-response curve (AUC) (AUC (arbitrary units, max 500 = no viability loss)); higher = less sensitive (higher viability)
Conditions in all cases: exposure time: 120 h; concentration range: 0.1 nM - 10 µM, 6 doses
27F1 = system: 27F1 (fetal-I hepatoblastoma organoid with intermediate liver markers)
Method: (§1)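 Patient-derived hepatoblastoma tumor organoids (about 50 organoids per well, 384-well plates, medium with 5% BME) were treated with the PMC pediatric cancer drug library. Each drug was tested in duplicate at 6 concentrations (0.1 nM to 10 µM, 10-fold steps).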

8F1 = system: 8F1 (fetal-I hepatoblastoma organoid with intermediate liver markers)
Method: as §1

17E = system: 17E (embryonal-type hepatoblastoma organoid)
Method: as §1

10F2 = system: 10F2 (fetal-II hepatoblastoma organoid with high liver markers)
Method: as §1

135F2 = system: 135F2 (fetal-II hepatoblastoma organoid with high liver markers)
Method: as §1

96F1 = system: 96F1 (fetal-I hepatoblastoma organoid with intermediate liver markers)
Method: as §1

13E = system: 13E (embryonal-type hepatoblastoma organoid)
Method: as §1

3E = system: 3E (embryonal-type hepatoblastoma organoid)
Method: as §1

13F2 = system: 13F2 (fetal-II hepatoblastoma organoid with high liver markers)
Method: as §1

17F1 = system: 17F1 (fetal-I hepatoblastoma organoid with intermediate liver markers)
Method: as §1

22E = system: 22E (embryonal-type hepatoblastoma organoid)
Method: as §1

Row | Structure (SMILES) | area under the viability dose-response curve (27F1) | area under the viability dose-response curve (8F1) | area under the viability dose-response curve (17E) | area under the viability dose-response curve (10F2) | area under the viability dose-response curve (135F2) | area under the viability dose-response curve (96F1) | area under the viability dose-response curve (13E) | area under the viability dose-response curve (3E) | area under the viability dose-response curve (13F2) | area under the viability dose-response curve (17F1) | area under the viability dose-response curve (22E)
1 | C[C@@H](NC(=O)c1ncnc(N)c1Cl)c1ncc(C(=O)Nc2cc(C(F)(F)F)c(Cl)cn2)s1 [TAK-580] | > 500 | > 500 | > 500 | 433 | 449 | > 500 | > 500 | > 500 | 485 | > 500 | > 500
2 | CO[C@H]1C[C@@H]2CC[C@@H](C)[C@@](O)(O2)C(=O)C(=O)N2CCCC[C@H]2C(=O)O[C@H]([C@H](C)C[C@@H]2CC[C@@H](OC(=O)C(C)(CO)CO)[C@H](OC)C2)CC(=O)[C@H](C)/C=C(\C)[C@@H](O)[C@@H](OC)C(=O)[C@H](C)C[C@H](C)/C=C/C=C/C=C/1C [Temsirolimus] | 475 | 493 | 341 | 339 | 469 | 496 | 373 | 280 | 342 | 471 | 406
3 | COc1cc(C(=O)O)ccc1NC(=O)[C@@H]1N[C@@H](CC(C)(C)C)[C@](C#N)(c2ccc(Cl)cc2F)[C@H]1c1cccc(Cl)c1F [Idasanutlin] | 402 | 371 | 378 | 291 | 397 | 471 | 413 | 349 | 282 | 457 | 450
4 | CN/N=N/c1[nH]cnc1C(N)=O [MTIC] | > 500 | > 500 | > 500 | 445 | > 500 | > 500 | > 500 | > 500 | 443 | > 500 | > 500
5 | C[C@@H](c1ccc2nccn2c1)n1nnc2ncc(-c3cnn(C)c3)nc21 [Savolitinib] | > 500 | > 500 | 499 | 472 | 497 | > 500 | > 500 | 489 | > 500 | 489 | > 500
6 | Cc1cc(C)cc(C(=O)NOCCCCCC(=O)NO)c1 [LMK-235] | 411 | 428 | 365 | 395 | 378 | 426 | 404 | 407 | 379 | 418 | 413
7 | Cc1ncc(Cl)cc1NCc1ccc(C(=O)N[C@@H](CC2CCCC2)C(=O)NC2CC2)s1 | 488 | > 500 | > 500 | 491 | 476 | > 500 | > 500 | 456 | 468 | > 500 | > 500
8 | COc1cc2c(Oc3ccc4[nH]c(C)cc4c3F)ncnc2cc1OCCCN1CCCC1 [Cediranib] | 431 | > 500 | 425 | 430 | 438 | 454 | 428 | 390 | 402 | 459 | 414
9 | CCCS(=O)(=O)Nc1ccc(F)c(C(=O)c2c[nH]c3ncc(-c4ccc(Cl)cc4)cc23)c1F [Vemurafenib] | 499 | 495 | 496 | 395 | 498 | 490 | 475 | 490 | 440 | 499 | 447
10 | Nc1ncccc1-c1nc2ccc(-c3ccccc3)nc2n1-c1ccc(C2(N)CCC2)cc1 [Miransertib] | 447 | 428 | 365 | 446 | 429 | 433 | 421 | 338 | 422 | 494 | 387
11 | Cc1cc(-c2ncc(CC(=O)Nc3ccc(-c4cnccn4)cn3)cc2C)ccn1 [LGK974] | 492 | 489 | 475 | 474 | 499 | 491 | 497 | > 500 | 477 | 497 | 494
12 | Nc1ccn([C@@H]2O[C@H](CO)[C@@H](O)[C@@H]2O)c(=O)n1 [Cytarabine] | 427 | 479 | 425 | 481 | 403 | 378 | 425 | 370 | 377 | 393 | 433
13 | CC(C)c1c(-c2ccccc2)nc2c(C#N)c[nH]n2c1=O [CPI-455] | > 500 | > 500 | > 500 | 469 | > 500 | > 500 | > 500 | > 500 | > 500 | 498 | > 500
14 | O=c1nc(N2CCOCC2)oc2c(-c3cccc4c3sc3ccccc34)cccc12 [LTURM34] | > 500 | 489 | 487 | 393 | 467 | 497 | 473 | 486 | 484 | 490 | 433
15 | CC[C@]1(O)C[C@@H]2CN(CCc3c([nH]c4ccccc34)[C@@](C(=O)OC)(c3cc4c(cc3OC)N(C)[C@H]3[C@@](O)(C(=O)OC)[C@H](OC(C)=O)[C@]5(CC)C=CCN6CC[C@]43[C@@H]65)C2)C1 [Vinblastine] | 194 | 220 | 183 | 160 | 176 | 156 | 164 | 148 | 189 | 208 | 223
16 | CC1(C)CCC(c2ccc(Cl)cc2)=C(CN2CCN(c3ccc(C(=O)NS(=O)(=O)c4ccc(N[C@H](CCN5CCOCC5)CSc5ccccc5)c(S(=O)(=O)C(F)(F)F)c4)cc3)CC2)C1 [Navitoclax] | 421 | 321 | 423 | 335 | 425 | 423 | 414 | 326 | 409 | 433 | 423
17 | Cn1cnc2c(F)c(Nc3ccc(Br)cc3F)c(C(=O)NOCCO)cc21 [Binimetinib] | 499 | > 500 | 424 | 343 | 396 | 481 | 490 | > 500 | 379 | 458 | 489
18 | C[C@@H](Oc1cc(-c2cnn(C3CCNCC3)c2)cnc1N)c1c(Cl)ccc(F)c1Cl [Crizotinib] | 441 | 477 | 405 | 369 | 422 | 462 | 415 | 379 | 398 | 431 | 420
19 | CCN1CCN(Cc2ccc(Nc3ncc(F)c(-c4cc(F)c5nc(C)n(C(C)C)c5c4)n3)nc2)CC1 [Abemaciclib] | 402 | 448 | 284 | 314 | 360 | 411 | 408 | 264 | 314 | 452 | 395
20 | C[C@@H]1COCCN1c1cc(=O)n2c(n1)N(Cc1cncc(Cl)c1)[C@H](C(F)(F)F)CC2 [SAR405] | 454 | 489 | 496 | > 500 | 490 | > 500 | 497 | 479 | 467 | > 500 | 474
21 | Cc1cccc(-c2[nH]c(CNc3ccccc3F)nc2-c2ccc3ncnn3c2)n1 [Vactosertib] | > 500 | 491 | > 500 | 394 | 481 | 496 | 493 | 419 | > 500 | > 500 | 481
22 | CC[C@H](Nc1ncnc2[nH]cnc12)c1nc2cccc(F)c2c(=O)n1-c1ccccc1 [Idelalisib] | 492 | 484 | 488 | 492 | > 500 | > 500 | 497 | 491 | 496 | 495 | 492
23 | CNCc1ccc(-c2[nH]c3cc(F)cc4c3c2CCNC4=O)cc1 [Rucaparib] | > 500 | 476 | 489 | 446 | 452 | > 500 | 484 | 490 | 458 | 489 | 475
24 | Oc1nc(-c2ccc(C(F)(F)F)cc2)nc2c1CSCC2 [XAV-939] | > 500 | 490 | > 500 | 456 | 486 | > 500 | 486 | 496 | 477 | > 500 | 491
25 | O=C(Nc1cnn2ccc(N3CCC[C@@H]3c3cc(F)ccc3F)nc12)N1CC[C@H](O)C1 [Larotrectinib] | > 500 | 473 | 453 | > 500 | 495 | 481 | 487 | 450 | > 500 | 467 | > 500
26 | S=P(N1CC1)(N1CC1)N1CC1 [ThioTEPA] | 472 | 478 | 443 | 394 | 440 | 461 | 483 | 400 | 433 | 488 | 474
27 | c1cn2cc(-c3ccc4cn[nH]c4c3)nc(Nc3ccc(N4CCOCC4)cc3)c2n1 [Entospletinib] | 490 | 480 | > 500 | 462 | 481 | 480 | 486 | 473 | > 500 | 480 | 496
28 | COc1cc(CCc2cc(NC(=O)c3ccc(N4CC(C)NC(C)C4)cc3)n[nH]2)cc(OC)c1 (stereo not drawn) [AZD4547] | > 500 | > 500 | 338 | 476 | 471 | 475 | 375 | 308 | 376 | 480 | 370
